Source: patent publication US20070213301A1 (ACHILLION PHARMACEUTICALS, INC., priority 2006, published 2007)
Read-outs that look alike come from different tables or passages of the source.

System: HCV replicon
Assay: HCV replicon replication assay (NPTII ELISA)
Assay type: cell-based, Hepatitis C virus (Huh-7 cells)
Settings: inhibition of HCV replicon replication in Huh-7 HCV replicon-containing cells, three days incubation, NPT level by ELISA
Description: Compounds claimed herein are tested for the ability to inhibit viral replication of the Hepatitis C replicon in cultured cells in which the HCV replicon construct has been incorporated. The HCV replicon system was described by Bartenschlager, et. al (Science, 285, pp. 110-113 (1999)). The replicon system is predictive of in vivo anti-HCV activity; compounds that are active in humans uniformly evidence activity in the replicon assay.
In this assay HCV replicon containing cells are treated with different concentrations of the test compound to ascertain the ability of the test compound to suppress replication of the HCV replicon. As a positive control, HCV replicon-containing cells are treated with different concentrations of interferon alpha, a known inhibitor of HCV replication. The replicon assay system includes Neomycin Phosphotransferase (NPT) as a component of the replicon itself in order to detect the transcription of replicon gene products in the host cell. Cells in which the HCV replicon is actively replicating have high levels of NPT; the level of NPT is proportional to HCV replication. […] The NPT level of each sample is measured using a captured ELISA.
The HCV replicon contains, 5′-3′, the HCV-IRES, the neomycin phosphotransferase (neo) gene, the IRES of encephalomyocarditis virus, which directs translation of HCV sequences NS3 to NS5B, and the 3′-NTR. The sequence of the HCV replicon has been deposited in GenBank (Accession no. AJ242652).
The replicon is transfected into Huh-7 cells using standard methods such as electroporation.
The cells are then seeded onto 96-well plates at a density of 6000-7500 cells/100 microliters/well (6-7.5×10^5 cells/10 ml/plate). The plates are then incubated at 37° C. in a 5% CO2 incubator.
HCV replicon-containing cells are rinsed with once PBS once; 2 mls of trypsin are then added. Cells are incubated at 37° C. in a 5% CO2 incubator for 3-5 minutes. 10 mls of complete medium is added to stop the reaction. Cells are blown gently, put into a 15 ml tube, and spun at 1200 rpm for four minutes. The trypsin/medium solution is removed and 5 mls of medium (500 ml DMEM (high glucose)) from BRL catalog #12430-054; 50 mls 10% FBS, 5% Geneticin G418 (50 mg/ml, BRL catalog #10131-035), 5 ml MEM non-essential amino acids (100× BRL #11140-050) and 5 ml pen-strep (BRL #15140-148) is added. The cells and media are mixed carefully
Cells are plated with screening medium (500 ml DMEM (BRL #21063-029), 50 ml FBS (BRL #10082-147) and 5 ml MEM non-essential amino acid (BRL #11140-050) at 6000-7500 cells/100 μl/well of 96 well plate (6-7.5×10^5 cells/10 ml/plate). Plates are placed into 37° C. 5% CO2 incubator overnight.
The following morning, drugs (test compounds or interferon alpha) are diluted in 96 well U bottom plates with media or DMSO/media, depending on the final concentration chosen for screening. Generally for 6 concentrations of each test compounds ranging from 10 micromolar to 0.03 micromolar are applied. 100 μl of the test compound dilution is placed in wells of the 96 well plate containing the HCV replicon cells. Media without drug is added to some wells as a negative controls. DMSO is known to affect cell growth. Therefore, if drugs diluted in DMSO are used, all wells, including negative control (media only) and positive control (interferon alpha) wells, must contain the same concentration of DMSO, for single dose screening. The plates are incubated at 37° C. in a humidified 5% CO2 environment for three days.
On day four, the NTPII assay is quantitated. The medium is poured from the plates and the plates are washed once in 200 μl of PBS. The PBS is then decanted and the plates tapped in a paper towel to remove any remaining PBS. Cells are fixed in situ with 100 μl/well of pre-cooled (−20° C.) methanol:acetone (1:1) and the plates are placed at −20° C. for 30 minutes.
The fixing solution is poured from the plates and the plates allowed to air-dry completely (approximately one hour). […]

[1] = Hepatitis C virus, Huh-7, 72 h, read-out: EC50

Structure (SMILES)	EC50 [1] [nM]	also measured
CCCCCOc1ccc(N(C(=O)C(=O)OC)c2nc(CN(C)C)cs2)cc1C(F)(F)F [Compound 23, methyl 2-((4-((dimethylamino)methyl)thiazol-2-yl)(4-(pentyloxy)-3-(trifluoromethyl)phenyl)amino)-2-oxoacetate]	1000 to 10000	
CCCCCCCCOc1ccc(N(C(=O)NCC(=O)O)c2nc(-c3cccnc3)c(F)s2)cc1C(F)(F)F [Compound 166, 2-(3-(5-fluoro-4-(pyridin-3-yl)thiazol-2-yl)-3-(4-(octyloxy)-3-(trifluoromethyl)phenyl)ureido)acetic acid]	< 1000	
CCCCCCCCOc1ccc(N(C(=O)COCCOCCOC)c2nc(-c3cccnc3)c(F)s2)cc1C(F)(F)F [Compound 172, N-(5-fluoro-4-(pyridin-3-yl)thiazol-2-yl)-2-(2-(2-methoxyethoxy)ethoxy)-N-(4-(octyloxy)-3-(trifluoromethyl)phenyl)acetamide]	< 1000	
CCCCCCCCOc1ccc(N(COC(=O)C(C)(C)C)c2nc(-c3cccnc3)c(F)s2)cc1C(F)(F)F [Compound 192, ((5-fluoro-4-(pyridin-3-yl)thiazol-2-yl)(4-(octyloxy)-3-(trifluoromethyl)phenyl)amino)methyl pivalate]	< 1000	
CCCCCOc1ccc(N(C(C)=O)c2nc(C(=O)Nc3cccnc3)cs2)cc1C(F)(F)F [Compound 7, 2-(N-(4-(pentyloxy)-3-(trifluoromethyl)phenyl)acetamido)-N-(pyridin-3-yl)thiazole-4-carboxamide]	1000 to 10000	
CCCCCN(C)c1ccc(N(C(N)=O)c2nc(-c3ccc4c(c3)NC(=O)CO4)cs2)cc1C(F)(F)F [Compound 105, 1-(4-(methyl(pentyl)amino)-3-(trifluoromethyl)phenyl)-1-(4-(3-oxo-3,4-dihydro-2H-benzo[b][1,4]oxazin-6-yl)thiazol-2-yl)urea]	1000 to 10000	
CCCCCCCCOc1ccc(N(C(C)=O)c2nc(-c3cccnc3)c(F)s2)cc1C(F)(F)F [Compound 177, N-(5-fluoro-4-(pyridin-3-yl)thiazol-2-yl)-N-(4-(octyloxy)-3-(trifluoromethyl)phenyl)acetamide]	< 1000	
CC(C)COc1ccc(N(C(N)=O)c2nc(-c3cccnc3)cs2)cc1C(F)(F)F [Compound 152, 1-(4-isobutoxy-3-(trifluoromethyl)phenyl)-1-(4-(pyridin-3-yl)thiazol-2-yl)urea]		EC50: 1000 to 10000 nM
NC(=O)N(c1ccc(F)c(C(F)(F)F)c1)c1nc(-c2cccnc2)cs1 [Compound 83, 1-(4-fluoro-3-(trifluoromethyl)phenyl)-1-(4-(pyridin-3-yl)thiazol-2-yl)urea]	< 1000	
CCCCCCOc1ccc(N(C(N)=O)c2nc(-c3ccc(F)cc3)cs2)cc1 [Compound 122, 1-(4-(4-fluorophenyl)thiazol-2-yl)-1-(4-(hexyloxy)phenyl)urea]	< 1000	
CCCCCN(C)c1ccc(N(C(N)=O)c2nc(-c3ccccn3)cs2)cc1C(F)(F)F [Compound 106, 1-(4-(methyl(pentyl)amino)-3-(trifluoromethyl)phenyl)-1-(4-(pyridin-2-yl)thiazol-2-yl)urea]	< 1000	
CCCCCOc1ccc2c(c1)[nH]c(=O)n2-c1nc(-c2cccnc2)cs1 [Compound 127, 5-(pentyloxy)-1-(4-(pyridin-3-yl)thiazol-2-yl)-1H-benzo[d]imidazol-2(3H)-one]	1000 to 10000	
CCCCCCCCOc1ccc(N(C(=O)CCC(=O)O)c2nc(-c3cccnc3)c(F)s2)cc1C(F)(F)F [Compound 163, 4-((5-fluoro-4-(pyridin-3-yl)thiazol-2-yl)(4-(octyloxy)-3-(trifluoromethyl)phenyl)amino)-4-oxobutanoic acid]	< 1000	
C/C=N/N(c1ccc(OCCCCCCCC)c(C(F)(F)F)c1)c1nc(-c2cccnc2)cs1 [Compound 189, (E)-2-(2-ethylidene-1-(4-(octyloxy)-3-(trifluoromethyl)phenyl)hydrazinyl)-4-(pyridin-3-yl)thiazolo]	< 1000	
CCCCCCCCc1ccc(N(C(C)=O)c2nc(-c3cccnc3)c(F)s2)cc1C(F)(F)F [Compound 175, N-(5-fluoro-4-(pyridin-3-yl)thiazol-2-yl)-N-(4-octyl-3-(trifluoromethyl)phenyl)acetamide]	< 1000	
CCCCCOc1ccc2c(c1)[nH]c(=O)c(=O)n2-c1nc(-c2cccnc2)cs1 [Compound 128, 6-(pentyloxy)-1-(4-(pyridin-3-yl)thiazol-2-yl)quinoxaline-2,3(1H,4H)-dione]	> 10000	
CCCCCCCCc1ccc(N(C(=O)C(N)C(C)C)c2nc(-c3cccnc3)c(F)s2)cc1C(F)(F)F (centres unmarked) [Compound 180, 2-amino-N-(5-fluoro-4-(pyridin-3-yl)thiazol-2-yl)-3-methyl-N-(4-octyl-3-(trifluoromethyl)phenyl)butanamide]	< 1000	
CCCCCCCCOc1ccc(N(C(=O)CN(C)C)c2nc(-c3cccnc3)c(F)s2)cc1C(F)(F)F [Compound 167, 2-(dimethylamino)-N-(5-fluoro-4-(pyridin-3-yl)thiazol-2-yl)-N-(4-(octyloxy)-3-(trifluoromethyl)phenyl)acetamide]	< 1000	
CCCCCOc1ccc(N(C(=O)C(=O)OC)c2nc(C(=O)Nc3cccnc3)cs2)cc1C(F)(F)F [Compound 30, methyl 2-oxo-2-((4-(pentyloxy)-3-(trifluoromethyl)phenyl)(4-(pyridin-3-ylcarbamoyl)thiazol-2-yl)amino)acetate]	< 1000	
CCCCCOc1ccc(N(C)c2nc(-c3cccnc3)cs2)cc1C(F)(F)F [Compound 2, N-methyl-N-(4-(pentyloxy)-3-(trifluoromethyl)phenyl)-4-(pyridin-3-yl)thiazol-2-amine]	< 1000	
CCCCCOc1ccc(N(C(=O)c2cccnc2)c2nc(-c3nc4ccccc4s3)cs2)cc1C(F)(F)F [Compound 102, N-(4-(benzo[d]thiazol-2-yl)thiazol-2-yl)-N-(4-(pentyloxy)-3-(trifluoromethyl)phenyl)nicotinamide]	< 1000	
CCCCCCCOc1ccc(N(C(N)=O)c2nc(-c3ccc(C(=O)N(C)C)nc3)cs2)cc1 [Compound 79, 5-(2-(1-(4-(heptyloxy)phenyl)ureido)thiazol-4-yl)-N,N-dimethylpicolinamide]	> 10000	
CCCCCCCCOc1ccc(N(CC(N)=O)c2nc(-c3ccc(OCC(N)=O)cc3)cs2)cc1 [Compound 82, 2-((4-(4-(2-amino-2-oxoethoxy)phenyl)thiazol-2-yl)(4-(octyloxy)phenyl)amino)acetamide]	> 10000	
CCCCCN(C)c1ccc(N(C(N)=O)c2nc(-c3ccc(F)c(F)c3)cs2)cc1C(F)(F)F [Compound 107]		EC50 (Hepatitis C virus, Huh-7, 72 h): < 1000 nM
CCCCCOc1ccc(N(C(=O)C(C)C)c2nc(-c3cccnc3)cs2)cc1F [Compound 25, N-(3-fluoro-4-(pentyloxy)phenyl)-N-(4-(pyridin-3-yl)thiazol-2-yl)isobutyramide]	< 1000	
CCCCCCCCc1ccc(N(C(=O)[C@@H](N)C(C)C)c2nc(-c3ccc(O)nc3)cs2)cc1C(F)(F)F [Compound 157, (S)-2-amino-N-(4-(6-hydroxypyridin-3-yl)thiazol-2-yl)-3-methyl-N-(4-octyl-3-(trifluoromethyl)phenyl)butanamide]	1000 to 10000	
